Results published in PMC8041433 (Environmental Health Perspectives, 2021).
“And” between values parts separate entries of the source, which are not always exact repeats. Equal values may be shown once. Where a name gives a salt, the structure may show the parent alone. Read-outs that look alike come from different tables or passages of the source.

Tests used:
recombinant human AChE [1] = target: T1, recombinant human AChE (Homo sapiens, UniProt P22303)
AChE in SH-SY5Y cells = AChE in SH-SY5Y cells (Homo sapiens, UniProt P22303); assay: cell-based
AChE in SH-SY5Y cells, sequence (P22303 32-614): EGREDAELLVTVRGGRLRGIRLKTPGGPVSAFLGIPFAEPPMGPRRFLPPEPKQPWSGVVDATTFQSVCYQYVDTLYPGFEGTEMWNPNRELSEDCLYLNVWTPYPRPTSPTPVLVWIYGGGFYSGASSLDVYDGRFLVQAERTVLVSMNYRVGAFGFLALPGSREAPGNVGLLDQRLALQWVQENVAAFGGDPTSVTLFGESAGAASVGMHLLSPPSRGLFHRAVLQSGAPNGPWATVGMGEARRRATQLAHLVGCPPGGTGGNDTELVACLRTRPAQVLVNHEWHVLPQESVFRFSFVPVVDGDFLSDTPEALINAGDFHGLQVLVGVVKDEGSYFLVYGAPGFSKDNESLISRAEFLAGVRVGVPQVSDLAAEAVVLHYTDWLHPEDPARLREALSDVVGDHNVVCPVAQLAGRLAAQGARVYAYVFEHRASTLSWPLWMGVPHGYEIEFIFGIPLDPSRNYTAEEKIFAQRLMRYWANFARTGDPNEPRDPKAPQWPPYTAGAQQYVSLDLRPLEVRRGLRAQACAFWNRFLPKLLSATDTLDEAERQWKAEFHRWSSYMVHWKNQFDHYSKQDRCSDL

recombinant human AChE [2] = target: T1, recombinant human AChE; assay: biochemical

T1 sequence (P22303 32-614): as above

Row | SMILES | CC-v2 (curve classes) (recombinant human AChE [1]) | Efficacy (recombinant human AChE [1]) | CC-v2 (curve classes) (AChE in SH-SY5Y cells) | CC-v2 (curve classes) (recombinant human AChE [2]) | Efficacy (recombinant human AChE [2]) | IC50 (AChE in SH-SY5Y cells; read-out: IC50) | IC50 (recombinant human AChE [2]; read-out: IC50) [µM] | AChE inhibition (result in words) (recombinant human AChE [2]) | IC50 (AChE in SH-SY5Y cells; IC50 (uM)) | IC50 (recombinant human AChE [2]; IC50 (uM)) | IC50 (recombinant human AChE [1]) [µM]
1 | COc1cc(C(=O)NCc2ccc(OCCN(C)C)cc2)cc(OC)c1OC [Trimethobenzamide hydrochloride] | 4 | -14.276 | -2.1 and -1.1 | -1.1 | -75.922 | – | – | – | – | – | –
2 | Cc1ccc2c(c1)OCC(=O)CO2 [7-Methyl-2H-1,5-benzodioxepin-3(4H)-one] | 4 | 0 | -2.1 | -2.2 | -48.628 | 35.6 µM and 31.7 µM | 79.6 | – | – | – | –
3 | COP(=O)(OC)Oc1ccc([N+](=O)[O-])cc1 [Methylparaoxon] | -2.1 | -96.544 | -1.1 | -1.1 | -92.551 | – | – | – | – | – | –
4 | CC1(C)Cc2cccc(O)c2O1 [2,3-Dihydro-2,2-dimethyl-7-benzofuranol, reference compound] | – | – | – | – | – | – | – | inactive | – | – | –
5 | CN1CCCN=C1/C=C/c1cccs1.O=C(O)C(O)C(O)C(=O)O [Pyrantel tartrate] | 4 | 0 | -2.1 | -2.4 | -36.527 | 30.9 µM and 27.5 µM and 15.5 µM | 38.9 | – | – | – | –
6 | CCOP(=S)(Oc1ccc([N+](=O)[O-])cc1)c1ccccc1 (stereo not drawn) [EPN] | -1.1 | -95.341 | 4 | 4 | 0 | – | – | did not show effects | – | – | –
7 | CCCCCC1Nc2cc(C(F)(F)F)c(S(N)(=O)=O)cc2S(=O)(=O)N1 (stereo not drawn) [Penflutizide] | 4 | -21.532 | -2.1 | -2.2 | -58.761 | – | – | – | 15.5 µM and 13.8 µM | 21.9 µM | –
8 | CN(C)c1ccc(C(=C2C=CC(=[N+](C)C)C=C2)c2ccc(N(C)C)cc2)cc1.[Cl-] [Methylrosaniline chloride] | 4 | 0 | – | -2.1 | -113.882 | 38.9 µM | 30.9 | – | – | – | –
9 | Nc1c(/N=N/c2ccc(-c3ccc(/N=N/c4cc(S(=O)(=O)O)c5ccccc5c4N)cc3)cc2)cc(S(=O)(=O)O)c2ccccc12 [C.I. Direct Red 28] | 4 | 13.368 | – | -1.2 | -36.697 | – | – | – | 79.6 µM and 71 µM and 89.4 µM | 10 µM | –
10 | C[n+]1cc2c3c(ccc2c2ccc4cc5c(cc4c21)OCO5)OCO3 [Sanguinarine] | 4 | -7.894 | -2.1 | -2.2 | -68.744 | – | – | – | 15.1 µM and 12 µM and 10.7 µM | 16.9 µM | –
11 | CN1CCCC(n2nc(Cc3ccc(Cl)cc3)c3ccccc3c2=O)CC1 (stereo not drawn) [Azelastine hydrochloride] | 4 | 0 | -2.1 | -2.2 | -73.562 | – | – | – | 17.4 µM and 15.5 µM | 27.5 µM | –
12 | CC(C)Nc1nc(Cl)nc(NC(C)C)n1 [Propazine] | 4 | 0 | -2.1 and 4 | -2.2 and 4 | – | – | – | – | 31.7 µM and 25.2 µM and 28.3 µM | 71 µM | –
13 | CCOP(=S)(OCC)Oc1cc(C)nc(N(CC)CC)n1 [Pirimiphos-ethyl] | 4 | -16.211 | – | 4 | -15.947 | – | – | did not show effects | – | – | –
14 | Cc1nc2n(c(=O)c1CCN1CCC(c3noc4cc(F)ccc34)CC1)CCCC2 [Risperidone] | 4 | 0 | -1.1 and -2.1 | 4 | -13.373 | – | – | – | – | – | –
15 | Cl.O=C(c1ccc(F)cc1)C1CCN(CCn2c(=S)[nH]c3ccccc3c2=O)CC1 [Altanserin hydrochloride] | 4 | 0 | -2.1 | 4 | 0 | 13.8 µM | – | – | – | – | –
16 | COc1ccc2c(c1OC)CN1CCc3cc4c(cc3[C@@H]1C2)OCO4 [Canadine] | -3 | -45.32 | -1.1 and -2.1 | -1.1 | -74.441 | – | – | – | 8.71 µM and 11 µM and 9.77 µM | – | –
17 | CCN=C1C=CC(=C(c2ccc(N(CC)CC)cc2)c2ccc(N(CC)CC)cc2)c2ccccc21.Cl [Basic Blue 7] | 4 | 0 | -2.1 | -1.1 | -96.089 | 62.9 µM and 70.6 µM and 79.2 µM | 19.9 | – | – | – | –
18 | CCOC(=O)CC(SP(=S)(OC)OC)C(=O)OCC (stereo not drawn) [malathion] | – | – | – | – | – | – | – | not identified to inhibit AChE | – | – | –
19 | O=C(C[S+]([O-])Cc1ccco1)NC/C=C\COc1cc(CN2CCCCC2)ccn1 (stereo not drawn) [Lafutidine] | 4 | 0 | -2.1 | -2.2 | -35.592 | – | – | – | 38.9 µM and 27.5 µM and 17.4 µM | 34.7 µM | –

Row | SMILES | CC-v2 (curve classes) (recombinant human AChE [1]) | Efficacy (recombinant human AChE [1]) | CC-v2 (curve classes) (AChE in SH-SY5Y cells) | CC-v2 (curve classes) (recombinant human AChE [2]) | Efficacy (recombinant human AChE [2]) | IC50 (AChE in SH-SY5Y cells; read-out: IC50) | IC50 (recombinant human AChE [2]; read-out: IC50) [µM] | AChE inhibition (result in words) (recombinant human AChE [2]) | IC50 (AChE in SH-SY5Y cells; IC50 (uM)) | IC50 (recombinant human AChE [2]; IC50 (uM)) | IC50 (recombinant human AChE [1]) [µM]
20 | C[C@H]1[C@@H]2Cc3ccc(O)cc3[C@@]1(C)CCN2C.C[C@H]1[C@@H]2Cc3ccc(O)cc3[C@@]1(C)CCN2C.O=C(O)/C=C/C(=O)O [(+)-Metazocine fumarate (2:1)] | -2.1 | -75.846 | -1.1 | -2.1 | -92.558 | 8.52 µM and 10.7 µM and 15.2 µM | 33.9 | – | – | – | 191
21 | CCCN[C@H]1CCc2nc(N)sc2C1 [Pramipexole dihydrochloride monohydrate] | 4 | -16.414 | -2.1 | 4 | -20.242 | – | – | – | – | – | –
22 | Nc1ccc(N)c(Cl)c1.O=S(=O)(O)O [2-Chloro-1,4-diaminobenzene sulfate] | 4 | -13.066 | -1.1 and -2.1 | -1.1 | -68.64 | 22.4 µM and 20 µM | 8.94 | – | – | – | –
23 | O=S1OC[C@@H]2[C@H](CO1)[C@]1(Cl)C(Cl)=C(Cl)[C@@]2(Cl)C1(Cl)Cl (stereo partly drawn) [Endosulfan I] | -3 | -117.846 | -1.1 | -1.1 | -101.477 | – | – | – | – | – | –
24 | CNC(=O)/C=C(\C)OP(=O)(OC)OC [Monocrotophos] | 4 | -13.186 | -2.1 | -2.2 | -46.284 | – | – | – | 39.9 µM and 35.6 µM | 63.3 µM | –
25 | CC[n+]1c(-c2ccccc2)c2cc(N)ccc2c2ccc(N)cc21 [Ethidium bromide] | 4 | – | -2.1 | -2.2 | – | – | – | – | 19.5 µM and 31.6 µM and 17.4 µM | 30.9 µM and 79.3 µM | –
26 | Oc1ccc(C(O)CNCCCCCCNCC(O)c2ccc(O)c(O)c2)cc1O (stereo not drawn) [Hexoprenaline sulfate] | 4 | 0 | – | 4 | 0 | – | – | – | 38.9 µM and 30.9 µM | – | –
27 | COP(=S)(OC)Oc1nc(Cl)c(Cl)cc1Cl [Chlorpyrifos-methyl] | 4 | 0 | 4 and -2.2 | 4 | 0 | – | – | – | 63.3 µM | – | –
28 | CC[C@@H](CO)NC(=O)[C@@H]1C=C2c3cccc4c3c(cn4C)C[C@H]2N(C)C1 [Methysergide] | 4 | -23.381 | -1.1 | -1.1 | -98.745 | – | – | – | 0.389 µM and 0.245 µM and 2.45 µM | 4.36 µM | –
29 | O=P(Oc1ccccc1)(Oc1ccccc1)Oc1ccccc1 [Triphenyl phosphate] | -2.1 | – | -1.1 and -2.1 | -1.1 | – | – | – | – | 20 µM and 19.9 µM and 22.3 µM and 35.6 µM and 31.6 µM and 28.1 µM and 25.2 µM | – | –
30 | CCCN(CCc1cccs1)[C@H]1CCc2c(O)cccc2C1 [Rotigotine] | 4 | 0 | -2.1 | -2.2 | -40.728 | – | – | – | 15.5 µM and 13.8 µM | 34.7 µM | –
31 | N=C(N)NC(=O)c1nc(Cl)c(N)nc1N [Amiloride hydrochloride] | 4 | 0 | -2.1 | 4 | -15.372 | – | – | – | 32.9 µM | – | –
32 | CCN(CC)C(=O)[C@@H]1C=C2c3cccc4[nH]cc(c34)C[C@H]2N(C)C1 [Lysergide] | 4 | -29.643 | -2.1 | -2.2 | -56.682 | – | – | – | 73.8 µM and 93 µM | 104 µM | –
33 | CNC(=O)O/N=C/C(C)(C)S(C)(=O)=O [Aldoxycarb] | – | – | -2.1 | -1.1 and -2.1 | – | – | – | – | – | – | –
34 | CCOP(=S)(OCC)Oc1cc(Cl)c(Br)cc1Cl [Bromophos-ethyl] | -1.1 | -91.453 | – | -3 | -50.884 | – | – | – | – | – | –
35 | COP(N)(=O)SC (stereo not drawn) [Methamidophos] | – | – | -2.1 | -2.1 | – | – | – | – | – | – | –
36 | COc1cc2nc(N3CCN(C(=O)C4COc5ccccc5O4)CC3)nc(N)c2cc1OC (stereo not drawn) [Doxazosin mesylate] | 4 | 0 | – | -2.2 | -37.943 | – | – | – | – | – | –
37 | COP(=S)(OC)SCn1nnc2ccccc2c1=O [Azinphos-methyl] | 4 | – | -2.1 and -1.1 | – | – | – | – | – | – | – | –
38 | CNC(=C[N+](=O)[O-])NCCSCc1ccc(CN(C)C)o1 [Ranitidine, reference compound] | – | – | -1.1 | – | – | – | – | – | – | – | –
